Measured values taken from patent US20090220996A1, “In vitro Assay Methods for Classifying Embryotoxicity of Compounds” (RELIANCE LIFE SCIENCES PVT LTD., priority 2007, published 2009).
Values after ≈ are worked out from the molar mass of the structure shown. Like-named read-outs stand apart in the source and are kept apart here.

Tests used:
[1] = test system: human embryoid bodies (hEB); experiment: Cytotoxicity in human embryoid bodies, day 15 (MTT / CyQUANT); conditions: for IC50: Homo sapiens
Description: In general, the presently disclosed embryotoxicity testing protocols comprise the following sequence of steps. Studies using embryoid bodies generally comprise: a) preparation of various concentrations of test solutions in culture medium or a desired solvent; b) preparation of a cell suspension by enzymatic digestion of human embryonic stem cell colonies; c) culturing the cell suspension for formation of embryoid bodies in the presence and absence of one or more test solutions, and incubation for several days (e.g., three days) in hanging drops; d) cultivation of the embryoid bodies in bacteriological petri dishes for several days (e.g., two days) under controlled conditions; e) transfer of the embryoid bodies into 96 well plates and incubation for several days (e.g., 10 days) in the presence of one or more test solutions; and f) detection of the viability of the embryoid bodies after 15 days by MTT assay, or fluorescent or luminescent method, and isolation of RNA for studying gene expression. Studies using human foreskin fibroblasts (HFF) generally comprise: a) preparation of various concentrations of test solutions in culture medium or a desired solvent; b) plating of HFF cells in 96 well plates in the presence or absence of one or more test solutions for 15 days, changing the media and test solutions every 2 days; and c) detection of the viability of HFF after 15 days by MTT assay, or fluorescent or luminescent method. Studies using human embryonic stem cells generally comprise: a) preparation of various concentrations of test solutions in culture medium or a desired solvent; b) preparation of hES colonies by manual passage in the presence and absence of one or more test solutions, and incubation for 15 days on matrigel coated plates changing the media and test solutions every 2 days; c) disruption of the colonies after 15 days with enzymes to form single cells; d) labeling of single cells with a fluorescently-labeled dye, such as propidium iodide (“PI”); and e) detection of the percentage viability with FACS as a measure of cytotoxicity.
The culturing of the cell suspension is done by dispensing about ¼ of the cell suspension along with test chemicals on the inner side of a 100 mm bacteriological petri dish. Around 50-80 drops are dispensed for each concentration, the untreated control, and the solvent control. The lid is turned carefully into its regular position and is put on top of a petri dish containing 5 ml of phosphate buffered saline (“PBS”). The “hanging drops” are incubated for three days in a humidified atmosphere with 5% CO2 at 37° C.
On day 3, 5 ml of freshly prepared test solution is added to the lid of the “hanging drops” petri dish. The embryoid bodies are carefully transferred from the lid of the “hanging drops” petri dish to a 60 mm bacteriological petri dish. The suspension is cultivated for two days in a humidified atmosphere with 5% CO2 at 37° C.
On the 5th day, the EBs are transferred into 96 well plates by placing 10 EBs in each well. About 150 μl of freshly prepared test solution is added to each well, and three wells are used for each concentration. The 96 well plates are incubated for […] in a humidified atmosphere with 5% CO2 at 37° C. The remaining EBs are plated on a 24 well plate coated with 0.2% gelatin and allowed to differentiate. Media was replaced every second day until day 15.
On the 15th day, an MTT assay is performed. MTT solution (5 mg/ml) is prepared in culture medium containing test chemical. The MTT solution is added to all wells and incubated at 37° C. in a humidified atmosphere of 5% CO2 for 4 hours, after which the MTT desorb solution (acidified isopropanol) is added to each well. The plate is shaken on a micrometer plate for 15 minutes to dissolve the formazan. The absorbance is measured at 550-570 nm in a microtiter plate reader using 630 nm as a reference wavelength.

[2] = test system: human embryonic stem cells (hES); experiment: Cytotoxicity in undifferentiated human embryonic stem cells, day 15 (FACS with PI / CyQUANT); assay type: cell-based; conditions: Homo sapiens, Embryonic stem cell
Description: In general, the presently disclosed embryotoxicity testing protocols comprise the following sequence of steps. Studies using embryoid bodies generally comprise: a) preparation of various concentrations of test solutions in culture medium or a desired solvent; b) preparation of a cell suspension by enzymatic digestion of human embryonic stem cell colonies; c) culturing the cell suspension for formation of embryoid bodies in the presence and absence of one or more test solutions, and incubation for several days (e.g., three days) in hanging drops; d) cultivation of the embryoid bodies in bacteriological petri dishes for several days (e.g., two days) under controlled conditions; e) transfer of the embryoid bodies into 96 well plates and incubation for several days (e.g., 10 days) in the presence of one or more test solutions; and f) detection of the viability of the embryoid bodies after 15 days by MTT assay, or fluorescent or luminescent method, and isolation of RNA for studying gene expression. Studies using human foreskin fibroblasts (HFF) generally comprise: a) preparation of various concentrations of test solutions in culture medium or a desired solvent; b) plating of HFF cells in 96 well plates in the presence or absence of one or more test solutions for 15 days, changing the media and test solutions every 2 days; and c) detection of the viability of HFF after 15 days by MTT assay, or fluorescent or luminescent method. Studies using human embryonic stem cells generally comprise: a) preparation of various concentrations of test solutions in culture medium or a desired solvent; b) preparation of hES colonies by manual passage in the presence and absence of one or more test solutions, and incubation for 15 days on matrigel coated plates changing the media and test solutions every 2 days; c) disruption of the colonies after 15 days with enzymes to form single cells; d) labeling of single cells with a fluorescently-labeled dye, such as propidium iodide (“PI”); and e) detection of the percentage viability with FACS as a measure of cytotoxicity. […]
After 2 hours incubation, 150 μl of assay medium containing the appropriate concentration of test chemical (150 μl volume contains 1.333× the final chemical concentration) was added. Appropriate blanks without the chemicals were used along with the test samples The cell cultures were incubated at 5% CO2 and 37° C. for 3 days. On day 3, test solution was removed with the care, so that the cell layer on the bottom of the wells was not disturbed. Next, 200 μl of freshly prepared test solution (final concentration/well as on day 0) was added, and the cell cultures were incubated at 5% CO2 and 37° C. for 3 days. This process was repeated on days 6, 9, and 12. Determination of cell growth inhibition was performed at day 15 of the assay using MTT reagent. Cytotoxicity for hES cells was calculated using flow cytometry. Briefly, cells were placed on matrigel coated plates along with different test compound concentrations. Media was replaced every 3 days along with the different test compound concentrations. At day 15, hES cells were collected by trypsinization, and after washing with PBS, the cells were incubated with PI for 10 minutes in the dark. Percent viability for various test compound concentrations was calculated using flow cytometry.
Cytotoxicity analysis of three cell types (hES, hEBs and HFF) was evaluated using the CyQUANT assay following compound treatment. All data were the mean of three independent experiments for each cell type. Data is represented as the mean±SE.

[3] = Table 5; cited from earlier work
[4] = test system: 3T3 (mouse fibroblast cell line); conditions: Table 4; from the EST (Genschow, et al., 2000); cited from earlier work
[5] = test system: mouse ES cells; conditions: Table 4; from the EST (Genschow, et al., 2000); cited from earlier work
[6] = test system: human embryoid bodies (hEBs); experiment: Morphological evaluation of embryoid bodies (photomicrographs); assay type: cell-based; conditions: day 7 hEBs; FIG. 4A-4D
Description: Hanging drops were made in hES media with LIF and bFGF for calculating IC50-hES cells, and in hES media without LIF and bFGF (hEB media) for the formation of EBs. On day 3 the hES colonies were collected along with the respective test compound concentration, whereas the hEBs were collected and transferred to 60 mm bacteriological petri plates for another 2 days. Morphology of the EBs was monitored under the microscope for the formation of EBs. On day 5 the hEBs were plated in a 96 well plate for MTT, as well as on a 6 well plate for RNA extraction. The media along with the appropriate test compound concentration was replaced in the 96 well and 6 well plates on days 7, 9, 11, and 13. On day 15, MTT was performed on the hES plate and the differentiated EBs. RNA was extracted from all the concentrations of 5-fluorouracil, and 1 μg of RNA was converted to cDNA to perform RT-PCR, real time PCR, or TLDA.

O=C1NS(=O)(=O)c2ccccc21 [Saccharin, saccharin]
IC50 ([1]; 360 h, read-out: IC50-hEB): 1550 ± 34.5 mg/L (≈ 8.44 mM)
IC50 ([1]; read-out: IC50-hEBs): 1550 mg/L (≈ 8.44 mM)
cell survival ([1]; hEBs, 1000 μg/ml, CyQUANT, FIG. 4A/4B): about 60%
IC50 ([2]; 360 h, Table 3, mean of 3 experiments, day 15, read-out: IC50-hES): 1920 ± 22.5 mg/L (≈ 10.5 mM)
IC50 ([2]; Table 4, CyQuant cell viability assay, read-out: Human EST IC50 - hES): 1920 ± 22.5 mg/L (≈ 10.5 mM)
General toxicity [3]: Obesity
Mouse EST IC50 - 3T3 [4]: 3000 mg/L
Mouse EST IC50 - mES [5]: 3498 mg/L
concentration required to elicit a similar morphological response (loss of compactness, decreased EB size) [6]: 5000 μg/ml
